Data taken from article PMC6934184, “Selective DNA-PKcs inhibition extends the therapeutic index of localized radiotherapy and chemotherapy” (The Journal of Clinical Investigation, 2019).

Biological target: T1, PIK3C3 (hVPS34) (Homo sapiens, UniProt Q8NEB9)
T1 construct: purchased Thermo Fisher Scientific (Life Technologies) SelectScreen
Assay: SelectScreen Adapta
Format: biochemical
Conditions: ATP Km app
Description: The in vitro kinase selectivity of NU5455 was determined using the SelectScreen Broad Assay Panel (Thermo Fisher Scientific) involving activity and binding assays (Supplemental Table 1). […] Class IA PI3Ks were measured using the p85α subunit.
Kinase [ATP] % Assay Kinase [ATP] % Assay Kinase [ATP] % Assay Kinase [ATP] % Assay
DNA-PK Km app 98.3 Z LATS2 n/a 4.7 L KIT D820E n/a 1.3 L GSK3B (GSK3 beta) Km app -2.5 Z
PIK3C3 (hVPS34) Km app 85.9 A PRKCZ (PKC zeta) Km app 4.7 Z GRK1 n/a 1.3 L BMPR2 n/a -2.5 L
PIK3C2B (PI3K-C2 beta) 10 28.9 A FGFR1 Km app 4.7 Z BRSK2 n/a 1.2 L CDC42 BPB (MRCKB) Km app -2.5 Z
SNF1LK2 Km app 26.6 Z MINK1 Km app 4.6 Z NUAK1 (ARK5) Km app 1.2 A AMPK (A2/B2/G2) n/a -2.6 L
HCK Km app 18.0 Z CSF1R (FMS) Km app 4.3 Z CDK9/cyclin K n/a 1.0 L PRKG1 Km app -2.7 Z
NEK2 Km app 17.8 Z CSNK1G3 (CK1 gamma 3) Km app 4.2 Z NUAK2 n/a 1.0 L KIT T670E n/a -2.8 L
ALK Km app 17.3 Z STK32C (YANK3) n/a 4.2 L CDK2/cyclin O n/a 0.9 L ERBB4 (HER4) Km app -2.8 Z
FGFR3 K650M n/a 16.5 L STK22D (TSSK1) Km app 4.2 Z CAMKK2 (CaMKK beta) n/a 0.9 L PLK4 n/a -2.8 L
SIK3 n/a 16.1 L TAOK3 (JIK) n/a 4.2 L FGFR3 Km app 0.9 Z GRK7 Km app -3.0 Z
LYN A Km app 15.2 Z RPS6KA4 (MSK2) Km app 4.2 Z ULK2 n/a 0.9 L MAPKAPK2 Km app -3.1 Z
BMPR1B (ALK6) n/a 14.5 L PTK2B (FAK2) Km app 4.2 Z KIT D816V n/a 0.9 L FGFR4 Km app -3.1 Z
INSRR (IRR) Km app 14.1 Z CLK2 Km app 4.1 Z CAMK1 (CaMK1) 10 0.8 A CASK n/a -3.1 L
PLK2 Km app 14.1 Z STK24 (MST3) Km app 4.1 Z PTK6 (Brk) Km app 0.7 Z GRK5 Km app -3.2 Z
PRKACA (PKA) Km app 14.0 Z CAMK1D (CaMKI delta) Km app 4.1 Z CAMK2B (CaMKII beta) Km app 0.7 Z EGFR (ErbB1) T790M Km app -3.3 Z
EIF2AK2 (PKR) n/a 13.3 L INSR Km app 4.1 Z ACVR1 (ALK2) n/a 0.7 L PAK4 Km app -3.3 Z
PRKX Km app 12.5 Z IRAK1 Km app 4.0 A ABL1 H396P n/a 0.6 L DAPK3 (ZIPK) Km app -3.4 Z
FGR Km app 12.1 Z SRC N1 Km app 3.9 Z MERTK (cMER) A708S n/a 0.6 L RET M918T n/a -3.5 L
CLK1 Km app 11.7 Z SRPK2 Km app 3.9 Z MAPKAPK5 (PRAK) Km app 0.6 Z PRKCQ (PKC theta) Km app -3.7 Z
MARK3 Km app 11.4 Z RPS6KA6 (RSK4) Km app 3.8 Z AKT1 (PKB alpha) Km app 0.5 Z CAMKK1 (CAMKKA) n/a -3.8 L
PDGFRB (PDGFR beta) Km app 11.0 Z GRK6 Km app 3.7 Z NTRK3 (TRKC) Km app 0.4 Z FLT3 D835Y Km app -3.9 Z
PRKCN (PKD3) Km app 10.7 Z PKN1 (PRK1) Km app 3.6 Z ZAP70 Km app 0.3 Z ROCK2 Km app -4.1 Z
STK16 (PKL12) n/a 10.5 L MAP3K8 (COT) 100 3.5 Z CSNK1A1 (CK1 alpha 1) Km app 0.3 Z CHUK (IKK alpha) Km app -4.2 A
FES (FPS) Km app 10.4 Z FLT4 (VEGFR3) Km app 3.5 Z MYLK (MLCK) n/a 0.2 L AXL Km app -4.2 Z
ABL1 Km app 10.4 Z GRK4 Km app 3.5 Z MKNK2 (MNK2) n/a 0.2 L PIM2 Km app -4.3 Z
MUSK Km app 10.3 Z FRK (PTK5) Km app 3.4 Z AMPK (A1/B1/G3) n/a 0.2 L PAK1 Km app -4.4 Z
MAPK1 (ERK2) Km app 10.1 Z FYN A n/a 3.3 L MAP3K2 (MEKK2) n/a 0.1 L BMPR1A (ALK3) n/a -4.4 L
BRAF 100 9.9 Z CDK1/cyclin A2 n/a 3.3 L CDK8/cyclin C n/a 0.1 L STK4 (MST1) Km app -4.4 Z
IGF1R Km app 9.7 Z KIT V559D T670I n/a 3.1 L MARK2 Km app 0.1 Z PRKCH (PKC eta) Km app -4.6 Z
MAPK14 (p38 alpha) Km app 9.7 Z SPHK2 10 3.1 A ICK n/a 0.0 L SGKL (SGK3) Km app -4.6 Z
LCK Km app 9.6 Z FGFR3 G697C n/a 3.1 L FGFR2 Km app 0.0 Z PI4KB (PI4K beta) Km app -4.7 A
MAPK11 (p38 beta) Km app 9.5 Z RIPK2 n/a 3.1 L AKT2 (PKB beta) Km app 0.0 Z PRKCE (PKC epsilon) Km app -4.9 Z
SRC Km app 9.5 Z PAK6 Km app 3.0 Z EPHB2 Km app -0.1 Z PHKG1 Km app -5.0 Z
CHEK1 (CHK1) Km app 9.3 Z LYN B Km app 3.0 Z TGFBR2 n/a -0.1 L PDGFRA D842V Km app -5.0 Z
CAMK2D (CaMKII delta) Km app 9.3 Z DAPK2 n/a 2.9 L TEK (Tie2) Km app -0.1 Z PRKG2 (PKG2) Km app -5.1 Z
PLK1 Km app 9.2 Z EPHA4 Km app 2.9 Z AURKA (Aurora A) Km app -0.1 Z TYRO3 (RSE) Km app -5.1 Z
RET Y791F Km app 9.2 Z PIK3CG (p110 gamma) Km app 2.9 A KIT D816H n/a -0.2 L TAOK2 (TAO1) Km app -5.1 Z
FLT3 Km app 9.1 Z HIPK1 (Myak) Km app 2.8 Z KIT N822K n/a -0.2 L EPHB4 Km app -5.3 Z
MAPK10 (JNK3) 100 9.0 Z ADRBK2 (GRK3) Km app 2.8 Z PRKACG (PRKAC gamma) n/a -0.2 L AURKC (Aurora C) Km app -5.4 Z
CSNK2A2 (CK2 alpha 2) Km app 8.7 Z STK17B (DRAK2) n/a 2.7 L TEK (TIE2) Y1108F n/a -0.3 L JAK1 Km app -5.7 Z […]

T1 sequence (Q8NEB9 whole entry): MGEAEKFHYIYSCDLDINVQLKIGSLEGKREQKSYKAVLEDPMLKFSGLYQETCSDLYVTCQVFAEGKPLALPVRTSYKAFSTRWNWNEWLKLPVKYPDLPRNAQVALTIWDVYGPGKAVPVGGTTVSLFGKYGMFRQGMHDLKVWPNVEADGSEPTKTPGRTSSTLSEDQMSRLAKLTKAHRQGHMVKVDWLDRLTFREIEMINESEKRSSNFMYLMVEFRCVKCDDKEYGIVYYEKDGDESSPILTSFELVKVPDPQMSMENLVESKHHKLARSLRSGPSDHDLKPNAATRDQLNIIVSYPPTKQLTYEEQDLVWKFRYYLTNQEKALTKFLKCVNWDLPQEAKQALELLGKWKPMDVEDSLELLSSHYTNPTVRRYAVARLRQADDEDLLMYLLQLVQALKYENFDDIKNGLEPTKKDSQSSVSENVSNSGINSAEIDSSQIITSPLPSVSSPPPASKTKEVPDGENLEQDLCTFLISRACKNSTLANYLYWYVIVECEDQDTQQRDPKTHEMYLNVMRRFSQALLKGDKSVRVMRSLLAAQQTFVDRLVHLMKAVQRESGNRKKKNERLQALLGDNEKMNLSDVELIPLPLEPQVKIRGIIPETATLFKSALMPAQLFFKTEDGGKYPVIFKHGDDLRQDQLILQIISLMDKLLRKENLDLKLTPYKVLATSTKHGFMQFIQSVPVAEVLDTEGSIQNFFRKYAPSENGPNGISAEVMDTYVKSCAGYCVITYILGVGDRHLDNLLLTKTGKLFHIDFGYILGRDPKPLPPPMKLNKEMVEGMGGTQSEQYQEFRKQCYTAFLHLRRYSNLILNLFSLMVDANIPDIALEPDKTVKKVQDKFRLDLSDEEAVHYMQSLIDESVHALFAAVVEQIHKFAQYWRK

In the case of `CN(C(=O)CN1CCOCC1)c1ccc2sc3c(-c4cccc5c(=O)cc(N6CC7CCC(C6)O7)oc45)cccc3c2c1` [NU5455], the “% inhibition” value (1 µM) is reported as 86% and the inhibition at 1 µM is reported as 85.9%.
